Data set [1] has as its target T1, Recombinant human soluble guanylate cyclase (sGC) (Homo sapiens, UniProt Q02153).
T1 construct: histidine tag (C); made in house; host or cells: Sf9 insect cells (baculovirus coinfection)
Put plainly: Molecular assay: activation of heme-free sGC, cGMP detection (CisBio kit). The class given is biochemical. As to conditions: 300 pM heme-free sGC, 37° C., 60 minutes, cGMP formation. As for the experimental part:
The compounds of the invention may be evaluated in the following molecular assay:
Recombinant human soluble guanylate cyclase (sGC) is purified from Sf9 insect cells coinfected with baculoviruses expressing the alpha 1 or beta 1 subunit of sGC, both with a C-terminal histidine tag. Heme-free sGC is prepared by treating cell lysate with a final concentration of 0.5% Tween 20 prior to purification on a nickel affinity column.
sGC catalyzes the conversion of guanosine-5′-triphosphate (GTP) to cyclic guanosine monophosphate (cGMP). The activity of sGC is measured in vitro using the commercially available CisBio cGMP detection kit (catalog #62GM2PEB) in a 384 well format. In brief, 300 pM heme-free sGC is incubated in reaction buffer (50 mM MOPS pH 6.8, 0.2 N KOH, 50 mM NaCl, 2 mM MgCl2, 0.1% BSA, 1.25 mM IBMX, 0.25 mM TCEP, 50 nM GTP) in the presence or absence of dilutions of test compounds diluted in DMSO (final concentration of 1%) in a volume of 10 microL at 37° C. for 60 minutes. Undiluted reaction products or an 80-fold dilution of reaction products (10 microL of either) prepared in reaction buffer containing 0.2 mM TCEP and 10 mM EDTA is mixed with 5 microL of d2-cGMP plus 5 microL of Eu^3+cryptate-labeled anti-cGMP, each diluted in buffer containing 0.1 M KPO4 pH 7.5, 0.4 M KF, 20 mM EDTA, 0.2% BSA. After a one hour incubation at room temperature in the dark, the mixtures are quantified on an EnVision plate reader (PerkinElmer) according to manufacturer instructions (laser excitation 337 nm, emission 620 and 665 nm). The ratio at each compound concentration is converted to nM cGMP using the linear portion of a calibration curve. Log compound concentration is plotted against combined undiluted and diluted nM cGMP values to determine the EC50 for each curve.
Representative compounds of the present invention were tested for activity in the above assay. Preferred compounds have an IC50<5,000 nM and more preferred compounds have an IC50<100 nM in this assay.

Data set [2] can be described thus: Assessment of solubility (HT solubility, pION, UV). The class given is physicochemical. As to conditions: incubated 16-19 hours, 1.0% DMSO, 100 uM; for solubility kinetic: pH 4.5 buffer (pION system solution), pH 4.5, aqueous buffer, kinetic from dmso stock, pH 4.5 buffer, read-out: Sol pH 4.5; for Sol pH 7.4: pH 7.4 buffer. As for the experimental part:
Solubility is measured by the following method.
DMSO stock samples at 10 mM conc are prepared. […] The samples are pierced and 100 ul of thawed samples are transferred into the PCR plate for analysis. Each sample is run in duplicate at each pH (pH 4.5 and 7.4). Up to 95 samples can be run in replicate at 2 pH's+1 DMSO (blank).
2. Preparation of pH 4.5 and 7.4 buffers:
pH 4.5 buffer: To 12.5 of system solution (pION) qs to 500 mL of distilled water (pH 2.85-2.90); adjust the pH to pH 4.5 with 0.5 N NaOH.
pH 7.4 buffer: To 12.5 of system solution (pION) qs to 500 mL of distilled water (pH 2.85-2.90); adjust the pH to pH 7.4 with 0.5N NaOH.
Preparation of UV blank plate:
75 ul of buffer (pH 7.4 or pH 4.5) is added to UV plate followed by addition of […] of N-propanol. The solution is mixed and the blank spectrum is read using spectrophotometer.
Preparation of Reference UV plate:
10 ul of each stock sample (including DMSO control) is added to 190 ul of N-propanol to prepare the reference stock plate. Reference stock samples are mixed and 5 ul of each stock sample is added to UV blank plate after it is read spectrophotometrically. The reference stock sample is mixed with blank solution in UV plate and the reference spectrum is read using UV spectrophotometer.
Preparation of sample for incubation:
Solubility at pH 7.4: 6 ul of each stock sample (including DMSO control) is added to the storage plate containing 600 ul of pH 7.4 buffer, mixed and incubated for 16-19 hours. The plate is sealed well during the incubation process. The DMSO content in the sample is 1.0%. The concn in deep well plates is 100 uM
6 ul of each stock sample (including DMSO control) is added to the deep well plate containing 600 ul of pH 4.5 buffer, mixed and incubated for 16-19 hours. The plate is sealed well during the incubation process. The DMSO content in the sample is 1.0%. The concn in deep well plates is 100 uM
Preparation of sample UV plate:
At the end of the incubation period, 100 uL of sample from the storage plate is vacuum filtered using a filter plate. This step wets the filters and the filtrate is discarded. Another 200 ul of the sample from the deep well plate is vacuum filtered using the same filter block but a clean filter plate. 75 ul of the filtrate from the filter plate is transferred to a UV sample plate. 75 ul of N-propanol is added to this UV plate. The solution is mixed and the spectrum is read using the UV spectrophotometer.
The spectra collected for blank, reference and sample from 250-498 nm is analyzed using pION software. If the sample precipitates out, the solubility is reported as XX μg/ml. If there is no precipitation and the sample is soluble, solubility is reported as […] (YY being the initial concentration of the compound in the sample).

Values after ≈ are worked out from the molar mass of the structure shown. Where only a bound is given, the exact number is not on record here.

T1 sequence (Q02108 whole entry partner): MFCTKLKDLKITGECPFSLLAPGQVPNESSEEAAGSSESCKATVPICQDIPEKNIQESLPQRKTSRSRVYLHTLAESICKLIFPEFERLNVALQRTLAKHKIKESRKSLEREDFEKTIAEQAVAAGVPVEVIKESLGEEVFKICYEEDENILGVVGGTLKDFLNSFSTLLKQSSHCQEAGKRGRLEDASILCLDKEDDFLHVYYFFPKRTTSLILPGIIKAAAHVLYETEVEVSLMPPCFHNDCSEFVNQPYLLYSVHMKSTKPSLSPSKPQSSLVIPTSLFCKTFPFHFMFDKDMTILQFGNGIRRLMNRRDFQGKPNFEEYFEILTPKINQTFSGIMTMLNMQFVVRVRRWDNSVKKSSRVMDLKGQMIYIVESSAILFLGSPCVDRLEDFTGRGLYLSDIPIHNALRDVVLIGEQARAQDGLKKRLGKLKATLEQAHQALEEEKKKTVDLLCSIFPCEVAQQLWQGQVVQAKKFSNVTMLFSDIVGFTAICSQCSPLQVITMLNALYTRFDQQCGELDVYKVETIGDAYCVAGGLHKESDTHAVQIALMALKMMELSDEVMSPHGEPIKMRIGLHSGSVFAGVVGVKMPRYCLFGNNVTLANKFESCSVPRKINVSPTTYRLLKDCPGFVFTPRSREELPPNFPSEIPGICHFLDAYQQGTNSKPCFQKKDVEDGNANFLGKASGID
T1 sequence (Q02153 whole entry): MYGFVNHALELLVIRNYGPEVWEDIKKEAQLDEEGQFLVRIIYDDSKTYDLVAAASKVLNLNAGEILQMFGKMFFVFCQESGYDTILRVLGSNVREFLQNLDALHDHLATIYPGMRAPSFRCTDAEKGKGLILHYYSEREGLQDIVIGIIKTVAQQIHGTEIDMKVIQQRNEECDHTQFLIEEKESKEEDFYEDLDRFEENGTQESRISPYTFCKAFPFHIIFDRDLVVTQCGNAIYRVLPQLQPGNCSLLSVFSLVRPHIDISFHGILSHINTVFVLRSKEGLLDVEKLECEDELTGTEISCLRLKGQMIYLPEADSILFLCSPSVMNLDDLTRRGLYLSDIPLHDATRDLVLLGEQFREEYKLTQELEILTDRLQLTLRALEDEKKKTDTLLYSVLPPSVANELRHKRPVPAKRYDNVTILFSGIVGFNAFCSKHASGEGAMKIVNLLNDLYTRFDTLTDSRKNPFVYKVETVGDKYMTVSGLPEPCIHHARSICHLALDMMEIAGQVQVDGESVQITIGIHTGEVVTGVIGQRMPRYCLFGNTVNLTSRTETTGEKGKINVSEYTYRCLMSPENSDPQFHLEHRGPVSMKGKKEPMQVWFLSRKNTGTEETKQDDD

Consider `Cc1ccc(OCc2ccc3c(c2)CCN(C(C)C)C3)c(-c2cccc(-n3ncc(C(=O)O)c3C(F)(F)F)n2)c1` [Compound 21], for which the EC50 in data set [1] is 25 nM. Moreover, in data set [2], the solubility kinetic is above 0.055 mg/mL and the “Sol pH 7.4” value was above 55 μg/mL.

For the compound `Cc1ccc(OCc2ccc3c(c2)CCN(C2CCCOC2)C3)c(-c2cccc(-n3ncc(C(=O)O)c3C(F)(F)F)n2)c1` (stereo not drawn) [Compound 22], the EC50 in data set [1] is 1 nM. Moreover, in data set [2], the solubility kinetic is above 0.059 mg/mL and the “Sol pH 7.4” value is above 59 μg/mL.

`Cc1ccc(OCc2ccc3c(c2)CCN(CC2CCOC2)C3)c(-c2cccc(-n3ncc(C(=O)O)c3C(F)(F)F)n2)c1` (stereo not drawn) [Compound 23]: the EC50 in data set [1] was found to be 2 nM. Besides, in data set [2], the solubility kinetic is above 0.059 mg/mL and the “Sol pH 7.4” value is listed as above 59 μg/mL.

Regarding `Cc1ccc(OCc2ccc3c(c2)CCN(Cc2cnccn2)C3)c(-c2cccc(-n3ncc(C(=O)O)c3C(F)(F)F)n2)c1` [Compound 24], in data set [1], the EC50 was 9 nM. Besides, in data set [2], the solubility kinetic came to 0.04 mg/mL (≈ 66.6 µM) and the “Sol pH 7.4” value is recorded as above 59 μg/mL.

As to `Cc1ccc(OCc2ccc3c(c2)CCN(CCC2CCOCC2)C3)c(-c2cccc(-n3ncc(C(=O)O)c3C(F)(F)F)n2)c1` [Compound 25], the EC50 in data set [1] is 19 nM. Also, in data set [2], the solubility kinetic is above 0.062 mg/mL and the “Sol pH 7.4” value was above 62 μg/mL.

Take `Cc1ccc(OCc2ccc3c(c2)CCN(CC2CCCOC2)C3)c(-c2cccc(-n3ncc(C(=O)O)c3C(F)(F)F)n2)c1` (stereo not drawn) [Compound 26]: in data set [1], the EC50 was found to be 3 nM. Moreover, in data set [2], the solubility kinetic is above 0.06 mg/mL and the “Sol pH 7.4” value is listed as above 60 μg/mL.

Take `Cc1ccc(OCc2ccc3c(c2)CCN(Cc2ccccc2)C3)c(-c2cccc(-n3ncc(C(=O)O)c3C(F)(F)F)n2)c1` [Compound 27]: the EC50 in data set [1] was determined as 6 nM. In data set [2], the solubility kinetic came to 0.0182 mg/mL (≈ 30.4 µM) and the “Sol pH 7.4” value is 25.6 μg/mL.

Turning to `Cc1ccc(OCc2ccc3c(c2)CCN(C(C)c2cnccn2)C3)c(-c2cccc(-n3ncc(C(=O)O)c3C(F)(F)F)n2)c1` (stereo not drawn) [Compound 28], the EC50 in data set [1] stood at 9 nM. For the same compound, in data set [2], the solubility kinetic is above 0.061 mg/mL and the “Sol pH 7.4” value is above 61 μg/mL.

`Cc1ccc(OCc2ccc3c(c2)CCN(Cc2nc(C)cs2)C3)c(-c2cccc(-n3ncc(C(=O)O)c3C(F)(F)F)n2)c1` [Compound 29]: the EC50 in data set [1] came to 0.5 nM. For the same compound, in data set [2], the solubility kinetic came out at 0.0129 mg/mL (≈ 20.8 µM) and the “Sol pH 7.4” value was above 61 μg/mL.

For the compound `Cc1ccc(OCc2ccc3c(c2)CCN(Cc2cncn2C)C3)c(-c2cccc(-n3ncc(C(=O)O)c3C(F)(F)F)n2)c1` [Compound 30], in data set [1], the EC50 amounted to 71 nM. For the same compound, in data set [2], the solubility kinetic was above 0.06 mg/mL and the “Sol pH 7.4” value is above 60 μg/mL.

With `Cc1ccc(OCc2ccc3c(c2)CCN(Cc2cc(C)on2)C3)c(-c2cccc(-n3ncc(C(=O)O)c3C(F)(F)F)n2)c1` [Compound 31], in data set [1], the EC50 was 2 nM. Further, in data set [2], the solubility kinetic turned out to be 0.022 mg/mL (≈ 36.4 µM) and the “Sol pH 7.4” value is on record as above 60 μg/mL.

Consider `CCn1cc(CN2CCc3cc(COc4ccc(C)cc4-c4cccc(-n5ncc(C(=O)O)c5C(F)(F)F)n4)ccc3C2)cn1` [Compound 32], for which, in data set [1], the EC50 amounted to 12 nM. Further, in data set [2], the solubility kinetic was 0.0108 mg/mL (≈ 17.5 µM) and the “Sol pH 7.4” value is reported as 15.9 μg/mL.

`Cc1ccc(OCc2ccc3c(c2)CCN(C2CCC(C(F)(F)F)CC2)C3)c(-c2cccc(-n3ncc(C(=O)O)c3C(F)(F)F)n2)c1` (stereo not drawn) [Compound 33]: the EC50 in data set [1] came to 6 nM. Further, in data set [2], the solubility kinetic came out at 0.0063 mg/mL (≈ 9.57 µM) and the “Sol pH 7.4” value is 4.6 μg/mL.

For the compound `Cc1ccc(OCc2ccc3c(c2)CCN(C2CCOCC2)C3)c(-c2cccc(-n3ncc(C(=O)O)c3C(F)(F)F)n2)c1` [Compound 34], the EC50 in data set [1] was 8 nM. In data set [2], the solubility kinetic was 0.0415 mg/mL (≈ 70 µM) and the “Sol pH 7.4” value is 41.8 μg/mL.

Consider `Cc1ccc(OCc2ccc3c(c2)CCN(C2CCOC2)C3)c(-c2cccc(-n3ncc(C(=O)O)c3C(F)(F)F)n2)c1` (stereo not drawn) [Compound 35, 1-(6-{5-methyl-2-[2-(tetrahydrofuran-3-yl)-1,2,3,4-tetrahydroisoquinolin-6-ylmethoxy]phenyl}pyridin-2-yl)-5-trifluoromethyl-1H-pyrazole-4-carboxylic acid], for which the EC50 in data set [1] was 7 nM. Also, in data set [2], the solubility kinetic was determined as 0.0423 mg/mL (≈ 73.1 µM) and the “Sol pH 7.4” value worked out at 43.0 μg/mL.

On to `Cc1ccc(OCc2ccc3c(c2)CCN(C)C3)c(-c2cccc(-c3sc(C(=O)O)cc3C)n2)c1` [Compound 37, 4-methyl-5-{6-[5-methyl-2-(2-methyl-1,2,3,4-tetrahydro-isoquinolin-6-ylmethoxy)phenyl]pyridin-2-yl}-thiophene-2-carboxylic acid], for which the EC50 in data set [1] was 198 nM. For the same compound, in data set [2], the solubility kinetic came out at 0.0141 mg/mL (≈ 29.1 µM) and the “Sol pH 7.4” value came to 27.4 μg/mL.

Take `Cc1ccc(OCc2ccc3c(c2C)CCN(C)C3)c(-c2cccc(-n3ncc(C(=O)O)c3C(F)(F)F)n2)c1` [Compound 38]: in data set [1], the EC50 is 46 nM. Moreover, in data set [2], the solubility kinetic was found to be 0.0155 mg/mL (≈ 28.9 µM) and the “Sol pH 7.4” value came to 18.4 μg/mL.

With `Cc1ccc(OCc2ccc3c(c2)CCN(C)CC3)c(-c2cccc(-n3ncc(C(=O)O)c3C(F)(F)F)n2)c1` [Compound 40], the EC50 in data set [1] amounted to 32 nM. Further, in data set [2], the solubility kinetic turned out to be 0.0163 mg/mL (≈ 30.4 µM) and the “Sol pH 7.4” value turned out to be 18.5 μg/mL.

With `Cc1ccc(OCc2ccc3c(c2)CCN(C)C3)c(-c2cccc(-c3ncc(C(=O)O)n3C)n2)c1` [Compound 41], in data set [1], the EC50 is 4540 nM. Moreover, in data set [2], the solubility kinetic is above 0.058 mg/mL and the “Sol pH 7.4” value worked out at 11.8 μg/mL.

Consider `Cc1ccc(OCc2ccc3c(c2)CCN(C)C3)c(-c2cccc(-n3ncc(C(=O)O)c3C)n2)c1` [Compound 43, 5-methyl-1-{6-[5-methyl-2-(2-methyl-1,2,3,4-tetrahydro-isoquinolin-6-ylmethoxy)phenyl]pyridin-2-yl}-1H-pyrazole-4-carboxylic acid], for which, in data set [1], the EC50 turned out to be 1700 nM. Further, in data set [2], the solubility kinetic was 0.0154 mg/mL (≈ 32.9 µM) and the “Sol pH 7.4” value was 19.6 μg/mL.

On to `Cc1ccc(OCc2ccc3c(c2)CCN(C)C3)c(-c2cccc(-c3csc(C(=O)O)c3C)n2)c1` [Compound 46, 3-methyl-4-{6-[5-methyl-2-(2-methyl1,2,3,4-tetrahydroisoquinolin-6-ylmethoxy)phenyl]pyridin-2-yl}thiophene-2-carboxylic acid], for which, in data set [1], the EC50 turned out to be 2000 nM. Further, in data set [2], the solubility kinetic stood at 0.0001 mg/mL (≈ 0.206 µM) and the “Sol pH 7.4” value is on record as 5.7 μg/mL.

As usually defined, the EC50 is the concentration giving half of the maximal effect.

For the origin of these results see patent US8569339B2, “Soluble guanylate cyclase activators” (Boehringer Ingelheim International GmbH, priority 2011, dated 2013).
